The record followed here is ChEMBL document CHEMBL1153021, “Phenylphenalenones from the Australian plant Haemodorum simplex” (J Nat Prod, 2009).

A word on the IC50: it is the concentration needed to halve the response being measured. Low readings indicate higher potency, high ones lower potency.

One experiment has as its system P388. The experiment can be described thus: Cytotoxicity against mouse P388 cells after 72 hrs by MTT assay. In kind it is functional, cell-based. To be noted: P388, 72 h.
Experiment [1] concerns Trichophyton mentagrophytes. The experiment can be described thus: Antifungal activity against Trichophyton mentagrophytes ATCC 28185 at 100 IU. Format: functional, organism-based.
In another experiment the test system is Amorphotheca resinae. Description: Antifungal activity against Cladosporium resinae at 100 IU. In kind it is functional, organism-based.
The next experiment deals with Bacillus subtilis. Description: Antibacterial activity against Bacillus subtilis ATCC 19659 at 30 ug. In kind it is functional. To be noted: read-out: IZ.

Take `COc1c(O)cc2c3c(ccc(-c4ccc(O)cc4)c13)C(=O)OC2=O` [HAEMODOROL]: the IC50 with P388 was above 26 µM. `COc1cc2c3c(ccc(-c4ccccc4)c3c1O[C@@H]1O[C@H](CO)[C@@H](O)[C@H](O)[C@H]1O)C(=O)OC2` [HAEMODOROSE] registered an IC50 in the experiment with P388 above 26 µM. The same measure, in the same setting: as for `COC1=Cc2cc(O)c(O[C@@H]3O[C@H](CO)[C@@H](O)[C@H](O)[C@H]3O)c3c(-c4ccccc4)ccc(c23)C1=O` [DILATRIN], the figure is above 26 µM; as for `COC1=Cc2cc(OC)c(O)c3c(-c4ccccc4)ccc(c23)C1=O` [XIPHIDONE], above 26 µM. Consider NYSTATIN, for which the inhibition zone (IZ) in experiment [1] stood at 6 mm; in the experiment on Amorphotheca resinae, 10 mm. On to `COc1cc2c3c(ccc(-c4ccccc4)c3c1OC)C(=O)OC2=O`, for which, in the experiment with P388, the IC50 is above 26 µM. The same measure, in the same setting: as for `COc1c(O)cc2c3c(ccc(-c4ccccc4)c13)C(=O)OC2=O` [HAEMODORONE], the figure is above 26 µM. In the case of `O=C(N[C@H](CO)[C@H](O)c1ccc([N+](=O)[O-])cc1)C(Cl)Cl` [CHLORAMPHENICOL], the zone of inhibition at 30 µg/disc with Bacillus subtilis stood at 12 mm.
